Source: patent publication US10301308B2, “Azetidine derivatives for tau imaging” (Eli Lilly and Company, priority 2015, dated 2019)

Key:
[1] = Preliminary stability of Compound 8 formulations (radiochemical purity by HPLC); assay type: physicochemical
Method: The HPLC fraction containing the purified 3-(3-[18F]-fluoroazetidin-1-yl)-8-methylbenzo[4,5]imidazo[1,2-a]pyridine is diluted with 0.5% (w/v) sodium ascorbate in WFI (40 mL). The diluted solution is then passed through a Sep-Pak® C18 Plus Light Cartridge (130 mg Sorbent per Cartridge, 55-105 μm Particle Size, Waters Part No. WAT023501; conditioned with ethanol (5 mL) then WFI (5 mL) prior to use) and the retained 3-(3-[18F]-fluoroazetidin-1-yl)-8-methylbenzo[4,5]imidazo[1,2-a]pyridine is washed with 0.5% (w/v) sodium ascorbate in water for injection solution (10 mL). 3-(3-[18F]-fluoroazetidin-1-yl)-8-methylbenzo[4,5]imidazo[1,2-a]pyridine is eluted off the C18 cartridge using dehydrated alcohol, USP (1 mL) into a flask containing 7 mL of 0.5% (w/v) sodium ascorbate in 0.9% sodium chloride for injection, USP. The C18 cartridge is then rinsed with an additional 2 mL of 0.5% (w/v) sodium ascorbate in 0.9% sodium chloride for injection, USP. The resulting solution (total 10 mL) is sterile filtered through a 0.22 μm Millex GV PVDF filter (Millipore SLGV013SL) into the bulk product vial (BPV: 30 mL Sterile Empty Vial from Allergy Laboratories with a 20 mm chlorobutyl stopper). A sample from the BPV is taken out for quality control (see FIG. 2 for representative chromatogram) by HPLC using the gradient method detailed in Table 1 below.
Preliminary stability of 3-(3-[18F]-fluoroazetidin-1-yl)-8-methylbenzo[4,5]imidazo[1,2-a]pyridine (Compound 8) formulations are evaluated. Samples from batches (size ranging from 235 mCi to 471 mCi) are taken and analyzed by HPLC for radiochemical purity over an 6 hour time period.

[2] = Clinical PET kinetic profile: brain uptake, washout, metabolism; assay type: in vivo, human
Method: Clinical evaluation of 3-(3-[18F]-Fluoroazetidin-1-yl)-8-methylbenzo[4,5]imidazo[1,2-a]pyridine (Compound 8) as a PET radioligand for imaging tau protein deposition in patients with AD or other neurodegenerative disorders is conducted in healthy volunteers. AD patients, or Chronic Traumatic Encephalopathy (CTE) subjects, by completion of one or more PET scans with Compound 8. Dynamic PET imaging is acquired on a Siemens ECAT EXACT HR+ over 150 minutes following Compound 8 or [18F]AV-1451 injection (0-60 and 90-150 minute imaging segments). Compound 8 or [18F]AV-1451 scans are acquired similarly in two imaging sessions. A brain MRI is also obtained. PET and MRI images are aligned and normalized, and ATLAS-based volumes of interest (VOI) are applied to the dynamic PET series. Compound 8 or [18F]AV-1451 are evaluated in terms of kinetic profile as well as target region to cerebellum standardized uptake value ratio (SUVr between 100-120 min) between healthy volunteers and AD or CTE subjects.

[3] = batch 235 mCi, 23.5 mCi/mL, 10% EtOH, 0.45% Sodium Ascorbate in 0.9% Sodium Chloride
[4] = batch 295 mCi, 14.8 mCi/mL, 10% EtOH, 0.45% Sodium Ascorbate in 0.9% Sodium Chloride
[5] = batch 337 mCi, 33.7 mCi/mL, 10% EtOH, 0.45% Sodium Ascorbate in 0.9% Sodium Chloride
[6] = batch 471 mCi, 47.1 mCi/mL, 10% EtOH in 0.9% Sodium Chloride (no sodium ascorbate)

Stability Results (% RCP) T0 ([1]; batch 235 mCi, 23.5 mCi/mL, 10% EtOH (v/v), 0.45% (w/v) Sodium Ascorbate in 0.9% Sodium Chloride Injection, USP): 98 % RCP
Stability Results (% RCP) T0+2 h [1, 3]: 97 % RCP
Stability Results (% RCP) T0+4 h [1, 3]: 97 % RCP
Stability Results (% RCP) T0+6 h ([1]; batch 235 mCi, 23.5 mCi/mL, 10% EtOH, 0.45% Sodium Ascorbate in 0.9% Sodium Chloride, T0+6 h): 97 % RCP
Stability Results (% RCP) T0 [1, 4]: 97 % RCP
Stability Results (% RCP) T0+2 h [1, 4]: 96 % RCP
Stability Results (% RCP) T0+4 h [1, 4]: 96 % RCP
Stability Results (% RCP) T0+6 h ([1]; batch 295 mCi, 14.8 mCi/mL, 10% EtOH, 0.45% Sodium Ascorbate in 0.9% Sodium Chloride, T0+6 h): 96 % RCP
Stability Results (% RCP) T0 [1, 5]: 98 % RCP
Stability Results (% RCP) T0+2 h [1, 5]: 97 % RCP
Stability Results (% RCP) T0+4 h [1, 5]: 96 % RCP
Stability Results (% RCP) T0+6 h ([1]; batch 337 mCi, 33.7 mCi/mL, 10% EtOH, 0.45% Sodium Ascorbate in 0.9% Sodium Chloride, T0+6 h): 96 % RCP
Stability Results (% RCP) T0 ([1]; batch 471 mCi, 47.1 mCi/mL, 10% EtOH (v/v) in 0.9% Sodium Chloride Injection, USP (no sodium ascorbate)): 89 % RCP
Stability Results (% RCP) T0+2 h [1, 6]: 89 % RCP
Stability Results (% RCP) T0+4 h [1, 6]: 80 % RCP
Stability Results (% RCP) T0+6 h ([1]; batch 471 mCi, 47.1 mCi/mL, 10% EtOH in 0.9% Sodium Chloride (no sodium ascorbate), T0+6 h column, value taken at 5 h): 0 (5 h) % RCP
radiochemical purity retained ([1]; batches formulated with sodium ascorbate, up to 6 hours): 96-97%
intact parent remaining ([2]; 60 min post injection, n=7): 5±3%
max SUV relative to that of [18F]AV-1451 ([2]; healthy volunteers and AD subjects): ~50 % higher
peak brain uptake ([2]; human subjects, dynamic PET): ~8 SUV
SMILES: Cc1ccc2nc3cc(N4CC([18F])C4)ccn3c2c1 [Compound 8, 3-(3-[18F]-fluoroazetidin-1-yl)-8-methylbenzo[4,5]imidazo[1,2-a]pyridine]
stability of formulation over time ([1]; batch formulated without sodium ascorbate): deteriorates over time and degrades by 5 hours
